Results: EP4592286A1, “MACROCYCLIC NITROGEN-CONTAINING CROWN ETHER COMPOUND AND USE THEREOF AS PROTEIN KINASE INHIBITOR” (Artivila Biopharma, priority 2022, dated 2024)
Values after ≈ are worked out from the molar mass of the structure shown.

Legend:
JAK2 = target: T1, JAK2 (Mus musculus, UniProt Q62120); assay: JAKs cell activity test: JAK2_pSTAT5 in IL-3-induced BAF3 cells; assay type: cell-based; conditions: pSTAT5, IL-3-induced BAF3 cells
T1 construct: endogenous in cells; host or cells: BAF3
Procedure: (§1) THP1 cells were collected by centrifugation, resuspended with 1×HBSS, counted and diluted to a certain cell density. They were inoculated in a 384-well plate and cultured in a saturated humidity incubator with 37 °C and 5% CO2. The compound (DMSO final volume of 0.3%) was added to THP1 cells (10 doses in duplicates) and cultured in a saturated humidity incubator with 37 °C and 5% CO2. hIL-4 was added to stimulate cells and cultured in a saturated humidity incubator with 37 °C and 5% CO2. The lysis solution was added and incubated at room temperature. According to the instructions of AlphaLISA SureFire Ultra p-STAT6 detection kit, the lysis solution was transferred to pSTAT6 detection system, and the ALPHA signal was read by PE Envision microplate reader. The inhibition rate Inh%=((DMSO-sample)/(DMSO-background))×100 was calculated. IC50 was obtained by fitting with GraphPad Prism non-linear regression equation, and y=Bottom+(Top-Bottom)/(1+10^((LogIC50-x)×hillslope)), where x was the concentration of the compound and y was the inhibition rate.
(§2) JAK2_pSTAT5 was tesed in IL-3-induced BAF3 cells according to the above steps, and JAK3_pSTAT5 was tested in IL-2-induced CTLL-2 cells (without serum stimulation) according to the above steps.

JAK3 [1] = target: T2, JAK3 (Homo sapiens, UniProt P52333); assay: experiment of inhibiting kinase activity (Caliper mobility shift assay), JAK3; assay type: biochemical; conditions: for IC50: kinase activity assay, Table 3
T2 sequence (P52333 1-1124): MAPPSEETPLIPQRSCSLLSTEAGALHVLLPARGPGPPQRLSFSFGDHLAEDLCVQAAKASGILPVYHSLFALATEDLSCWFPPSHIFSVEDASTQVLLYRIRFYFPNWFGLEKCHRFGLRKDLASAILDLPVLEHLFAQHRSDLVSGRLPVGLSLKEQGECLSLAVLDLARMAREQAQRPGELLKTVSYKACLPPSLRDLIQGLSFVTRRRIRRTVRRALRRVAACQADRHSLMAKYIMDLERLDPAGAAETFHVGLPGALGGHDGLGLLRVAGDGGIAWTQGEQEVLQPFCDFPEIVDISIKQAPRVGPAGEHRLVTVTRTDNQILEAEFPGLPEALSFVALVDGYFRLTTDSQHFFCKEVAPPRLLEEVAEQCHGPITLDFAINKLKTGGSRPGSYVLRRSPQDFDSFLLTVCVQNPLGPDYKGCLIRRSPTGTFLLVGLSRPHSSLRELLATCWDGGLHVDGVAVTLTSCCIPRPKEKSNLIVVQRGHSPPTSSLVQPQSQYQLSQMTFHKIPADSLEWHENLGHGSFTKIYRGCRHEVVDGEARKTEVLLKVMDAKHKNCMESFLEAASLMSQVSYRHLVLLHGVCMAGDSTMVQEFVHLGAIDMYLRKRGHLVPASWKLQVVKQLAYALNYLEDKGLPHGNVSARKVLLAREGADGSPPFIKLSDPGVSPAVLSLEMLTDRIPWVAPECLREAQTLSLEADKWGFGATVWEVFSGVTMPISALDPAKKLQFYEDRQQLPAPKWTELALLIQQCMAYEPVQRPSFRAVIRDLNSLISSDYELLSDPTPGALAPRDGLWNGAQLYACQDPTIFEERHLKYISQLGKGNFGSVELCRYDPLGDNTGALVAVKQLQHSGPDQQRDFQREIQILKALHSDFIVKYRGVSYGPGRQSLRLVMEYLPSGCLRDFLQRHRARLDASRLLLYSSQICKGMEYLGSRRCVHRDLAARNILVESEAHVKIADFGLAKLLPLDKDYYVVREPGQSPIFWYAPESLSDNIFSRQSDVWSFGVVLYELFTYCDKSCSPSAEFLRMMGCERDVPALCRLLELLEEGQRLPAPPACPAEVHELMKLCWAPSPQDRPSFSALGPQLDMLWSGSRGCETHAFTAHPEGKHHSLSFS
Method in brief: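 Steps: compound and kinase in 1× kinase buffer, 10 min at room temperature; ATP plus substrate added to start; reaction run at room temperature, then stopped. Conversion read by Caliper; IC50 from four-parameter variable-slope fit of % inhibition against log concentration.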

TYK2 = TYK2 (Homo sapiens, UniProt P29597); assay: experiment of inhibiting kinase activity, TYK2; assay type: biochemical; conditions: read-out: inhibition rate TYK2; for inhibition at 0.01 µM: at 10 nM; for inhibition at 0.1 µM: at 100 nM
Procedure: (§3) The inhibition rates of tested compounds on JAK1, JAK2, JAK3, TYK2, CDK7, CDK9, EGFR (T790M) and LRRK2 kinases were measured. The test concentrations of the compounds were 10 nM and 100 nM, and the detection was performed by replicate wells. Alternatively, compounds were 3-fold serial diluted from 10 µM for 10 concentrations in replicate wells.

EGFR (T790M) = EGFR (T790M) (Homo sapiens, UniProt P00533, T790M); assay: experiment of inhibiting kinase activity, EGFR (T790M); assay type: biochemical; conditions: at 10 nM; read-out: inhibition rate EGFR(T790M)
Procedure: as §3

JAK3 [2] = target: T3, JAK3 (Mus musculus, UniProt Q62137); assay: JAKs cell activity test: JAK3_pSTAT5 in IL-2-induced CTLL-2 cells; assay type: cell-based; conditions: pSTAT5, IL-2-induced CTLL-2 cells
T3 construct: endogenous in cells; host or cells: CTLL-2
T3 sequence (Q62137 1-1100): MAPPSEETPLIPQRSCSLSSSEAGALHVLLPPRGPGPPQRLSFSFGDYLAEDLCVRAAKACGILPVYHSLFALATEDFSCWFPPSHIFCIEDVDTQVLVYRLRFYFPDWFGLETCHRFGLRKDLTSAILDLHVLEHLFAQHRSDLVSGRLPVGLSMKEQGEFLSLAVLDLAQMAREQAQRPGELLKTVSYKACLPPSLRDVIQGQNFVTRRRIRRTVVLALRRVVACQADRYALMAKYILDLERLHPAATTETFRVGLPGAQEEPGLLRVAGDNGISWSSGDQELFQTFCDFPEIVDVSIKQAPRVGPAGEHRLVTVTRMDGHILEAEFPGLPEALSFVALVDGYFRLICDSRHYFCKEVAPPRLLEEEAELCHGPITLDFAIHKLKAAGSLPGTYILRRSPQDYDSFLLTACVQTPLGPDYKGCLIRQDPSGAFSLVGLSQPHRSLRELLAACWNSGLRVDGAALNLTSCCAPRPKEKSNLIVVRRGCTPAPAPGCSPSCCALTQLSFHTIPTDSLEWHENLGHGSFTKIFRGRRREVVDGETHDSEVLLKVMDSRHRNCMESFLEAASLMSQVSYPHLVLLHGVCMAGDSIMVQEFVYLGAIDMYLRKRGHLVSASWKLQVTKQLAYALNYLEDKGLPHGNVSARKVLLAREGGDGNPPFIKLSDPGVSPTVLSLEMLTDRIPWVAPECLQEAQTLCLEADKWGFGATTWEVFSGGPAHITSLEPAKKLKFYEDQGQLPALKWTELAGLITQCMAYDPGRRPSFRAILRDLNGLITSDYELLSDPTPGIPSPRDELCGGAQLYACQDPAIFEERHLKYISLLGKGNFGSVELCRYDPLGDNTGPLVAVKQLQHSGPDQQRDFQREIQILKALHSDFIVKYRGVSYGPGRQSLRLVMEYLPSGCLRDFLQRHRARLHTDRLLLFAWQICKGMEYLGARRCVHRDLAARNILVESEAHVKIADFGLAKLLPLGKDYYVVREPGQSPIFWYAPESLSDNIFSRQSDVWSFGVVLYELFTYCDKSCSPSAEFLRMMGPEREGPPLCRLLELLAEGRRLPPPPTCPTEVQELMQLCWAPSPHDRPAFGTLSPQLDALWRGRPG
Procedure: as §1, §2

[3] = measurement of the solubility of compounds in water and diluted hydrochloric acid; assay type: physicochemical; conditions: thermodynamic from solid
Method in brief: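 About 1.0 mg solid shaken in 0.3 mL ultrapure water (pH~6) overnight or in dilute HCl (pH~1.5) for 1 h at room temperature, then centrifuged. Supernatant diluted 10-fold in acetonitrile and quantified by LC-MS against an acetonitrile standard curve; solubility = measured concentration × 10.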

[4] = target: Wild-type EGFR kinase protein (Homo sapiens, UniProt P00533); assay: experiment of inhibiting EGFR kinase activity (TR-FRET method); assay type: biochemical
Procedure: The inhibitory effect of the compounds on EGFR kinase activity was measured by TR-FRET method. The diluted solutions of the compounds were transfered to a 384-well plate (784075, Greiner), the plate was sealed and centrifuged at a speed of 1000 g for 1 minute. Wild-type EGFR kinase protein at 2-fold final concentration was prepared in 1×kinase buffer, 5 µL of wild-type EGFR at 2-fold final concentration was added to 384-well plate, the well plate was centrifuged at 1000 g for 30 seconds, and left at room temperature for 10 minutes. A mixture of 2-fold TK-substrate-biotin (2 µM) and ATP was prepared in 1×kinase buffer, and 5 µL of the mixture of 2×TK-substrate-biotin (2 µM) and ATP was added to start the reaction. The well plate was centrifuged at 1000 g for 30 seconds, sealed and left at room temperature for 40 minutes. […] The fluorescence signal values at 615 nm (Cryptate) and 665 nm (XL665) were detected by using Envision 2104 microplate reader. […] The IC50 was calculated with GraphPad 8.0 and the dose-reponse curve of the compound was plotted as follows: y=Bottom+(Top-Bottom)/(1+10^((logic50-x)×hillslope)), where x was logarithm of inhibitor concentration; and y was % inhibition rate.

Chain of TYK2 (P29597 whole entry): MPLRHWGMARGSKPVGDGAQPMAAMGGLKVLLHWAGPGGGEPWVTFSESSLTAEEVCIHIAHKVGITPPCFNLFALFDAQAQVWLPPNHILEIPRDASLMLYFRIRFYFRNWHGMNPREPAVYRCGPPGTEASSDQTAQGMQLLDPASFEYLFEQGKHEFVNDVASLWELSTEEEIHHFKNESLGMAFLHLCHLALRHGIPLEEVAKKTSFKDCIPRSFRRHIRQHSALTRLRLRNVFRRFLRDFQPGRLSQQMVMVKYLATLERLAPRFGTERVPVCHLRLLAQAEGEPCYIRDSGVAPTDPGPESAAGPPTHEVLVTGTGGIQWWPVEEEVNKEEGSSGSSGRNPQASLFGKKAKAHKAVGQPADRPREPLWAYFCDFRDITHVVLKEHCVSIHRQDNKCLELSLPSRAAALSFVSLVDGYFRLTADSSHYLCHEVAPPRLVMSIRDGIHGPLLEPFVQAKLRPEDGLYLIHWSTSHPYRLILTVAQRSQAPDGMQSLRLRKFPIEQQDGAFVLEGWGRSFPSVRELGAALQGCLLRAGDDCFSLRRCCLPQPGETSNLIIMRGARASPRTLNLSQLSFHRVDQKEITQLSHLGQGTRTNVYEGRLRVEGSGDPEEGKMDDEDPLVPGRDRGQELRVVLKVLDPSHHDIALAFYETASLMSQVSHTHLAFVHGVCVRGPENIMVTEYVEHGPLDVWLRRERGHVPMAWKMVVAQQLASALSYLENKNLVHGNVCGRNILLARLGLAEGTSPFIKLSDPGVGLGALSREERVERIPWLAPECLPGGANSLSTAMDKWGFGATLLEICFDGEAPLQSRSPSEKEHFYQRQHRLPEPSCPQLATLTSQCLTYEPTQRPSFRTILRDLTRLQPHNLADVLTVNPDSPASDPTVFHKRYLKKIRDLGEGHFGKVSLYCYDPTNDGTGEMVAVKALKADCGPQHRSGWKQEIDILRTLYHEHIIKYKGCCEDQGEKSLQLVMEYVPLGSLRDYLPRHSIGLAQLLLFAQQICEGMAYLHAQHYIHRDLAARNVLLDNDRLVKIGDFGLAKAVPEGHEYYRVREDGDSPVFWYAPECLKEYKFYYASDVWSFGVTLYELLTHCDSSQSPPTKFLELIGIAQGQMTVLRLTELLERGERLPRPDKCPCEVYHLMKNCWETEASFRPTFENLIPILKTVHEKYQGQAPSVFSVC
T1 sequence (Q62120 whole entry): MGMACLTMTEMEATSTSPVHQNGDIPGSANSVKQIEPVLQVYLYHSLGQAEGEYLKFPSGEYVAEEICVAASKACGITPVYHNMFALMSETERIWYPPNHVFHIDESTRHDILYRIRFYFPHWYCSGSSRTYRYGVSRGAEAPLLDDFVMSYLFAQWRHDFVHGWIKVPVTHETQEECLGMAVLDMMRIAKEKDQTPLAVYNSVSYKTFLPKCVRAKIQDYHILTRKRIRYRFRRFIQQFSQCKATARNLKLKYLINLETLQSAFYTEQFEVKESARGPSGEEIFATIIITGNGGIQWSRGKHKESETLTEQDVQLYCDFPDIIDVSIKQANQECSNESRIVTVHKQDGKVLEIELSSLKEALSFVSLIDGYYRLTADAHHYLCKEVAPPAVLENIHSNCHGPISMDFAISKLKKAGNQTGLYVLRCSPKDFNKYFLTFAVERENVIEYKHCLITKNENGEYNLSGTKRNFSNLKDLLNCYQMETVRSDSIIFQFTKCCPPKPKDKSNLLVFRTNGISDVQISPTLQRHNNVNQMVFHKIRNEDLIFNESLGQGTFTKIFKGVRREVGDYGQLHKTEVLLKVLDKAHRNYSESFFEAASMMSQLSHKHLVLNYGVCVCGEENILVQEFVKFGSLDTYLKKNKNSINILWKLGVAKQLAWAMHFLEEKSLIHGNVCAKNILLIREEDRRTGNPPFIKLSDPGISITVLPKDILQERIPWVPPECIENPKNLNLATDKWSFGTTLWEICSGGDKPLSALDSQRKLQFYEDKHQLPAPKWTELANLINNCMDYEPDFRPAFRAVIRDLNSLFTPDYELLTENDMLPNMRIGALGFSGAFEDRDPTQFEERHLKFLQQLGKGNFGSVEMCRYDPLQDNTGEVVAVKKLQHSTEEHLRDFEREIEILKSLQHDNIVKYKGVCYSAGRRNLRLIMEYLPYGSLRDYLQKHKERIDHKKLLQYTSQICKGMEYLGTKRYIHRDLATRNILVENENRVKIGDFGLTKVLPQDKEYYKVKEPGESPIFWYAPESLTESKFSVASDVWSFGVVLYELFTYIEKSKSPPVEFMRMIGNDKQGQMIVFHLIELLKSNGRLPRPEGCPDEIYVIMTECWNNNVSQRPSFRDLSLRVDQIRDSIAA
Chain of EGFR (T790M) (P00533 25-1210 T790M): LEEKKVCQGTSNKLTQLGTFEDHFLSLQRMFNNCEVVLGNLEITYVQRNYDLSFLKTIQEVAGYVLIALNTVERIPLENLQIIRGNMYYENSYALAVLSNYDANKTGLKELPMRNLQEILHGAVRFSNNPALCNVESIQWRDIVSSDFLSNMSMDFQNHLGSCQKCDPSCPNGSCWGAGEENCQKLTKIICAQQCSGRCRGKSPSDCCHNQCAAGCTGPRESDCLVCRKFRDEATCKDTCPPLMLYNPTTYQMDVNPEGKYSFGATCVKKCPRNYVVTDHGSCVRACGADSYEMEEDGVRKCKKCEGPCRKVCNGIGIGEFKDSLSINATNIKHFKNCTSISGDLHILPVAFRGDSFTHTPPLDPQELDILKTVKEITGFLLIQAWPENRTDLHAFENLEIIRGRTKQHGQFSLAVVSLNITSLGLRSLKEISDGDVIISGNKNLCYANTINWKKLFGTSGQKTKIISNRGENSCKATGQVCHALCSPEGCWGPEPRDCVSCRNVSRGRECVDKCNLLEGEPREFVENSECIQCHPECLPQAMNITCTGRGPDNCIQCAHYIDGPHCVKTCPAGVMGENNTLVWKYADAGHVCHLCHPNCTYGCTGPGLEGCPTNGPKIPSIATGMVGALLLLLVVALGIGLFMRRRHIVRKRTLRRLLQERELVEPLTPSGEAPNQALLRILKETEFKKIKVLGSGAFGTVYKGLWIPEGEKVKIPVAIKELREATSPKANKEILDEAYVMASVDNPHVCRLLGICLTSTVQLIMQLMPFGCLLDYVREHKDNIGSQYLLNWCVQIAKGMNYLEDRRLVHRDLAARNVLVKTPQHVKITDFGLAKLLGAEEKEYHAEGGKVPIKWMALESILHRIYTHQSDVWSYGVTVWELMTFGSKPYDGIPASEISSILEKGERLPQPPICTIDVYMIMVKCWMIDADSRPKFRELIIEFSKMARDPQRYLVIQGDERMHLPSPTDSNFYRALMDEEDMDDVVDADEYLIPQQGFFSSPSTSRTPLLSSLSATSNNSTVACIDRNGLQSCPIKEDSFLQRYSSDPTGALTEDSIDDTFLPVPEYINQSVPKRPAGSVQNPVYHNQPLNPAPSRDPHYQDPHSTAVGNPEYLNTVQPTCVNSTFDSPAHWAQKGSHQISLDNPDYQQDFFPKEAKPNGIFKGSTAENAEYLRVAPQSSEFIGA
Chain of Wild-type EGFR kinase protein (P00533 25-1210): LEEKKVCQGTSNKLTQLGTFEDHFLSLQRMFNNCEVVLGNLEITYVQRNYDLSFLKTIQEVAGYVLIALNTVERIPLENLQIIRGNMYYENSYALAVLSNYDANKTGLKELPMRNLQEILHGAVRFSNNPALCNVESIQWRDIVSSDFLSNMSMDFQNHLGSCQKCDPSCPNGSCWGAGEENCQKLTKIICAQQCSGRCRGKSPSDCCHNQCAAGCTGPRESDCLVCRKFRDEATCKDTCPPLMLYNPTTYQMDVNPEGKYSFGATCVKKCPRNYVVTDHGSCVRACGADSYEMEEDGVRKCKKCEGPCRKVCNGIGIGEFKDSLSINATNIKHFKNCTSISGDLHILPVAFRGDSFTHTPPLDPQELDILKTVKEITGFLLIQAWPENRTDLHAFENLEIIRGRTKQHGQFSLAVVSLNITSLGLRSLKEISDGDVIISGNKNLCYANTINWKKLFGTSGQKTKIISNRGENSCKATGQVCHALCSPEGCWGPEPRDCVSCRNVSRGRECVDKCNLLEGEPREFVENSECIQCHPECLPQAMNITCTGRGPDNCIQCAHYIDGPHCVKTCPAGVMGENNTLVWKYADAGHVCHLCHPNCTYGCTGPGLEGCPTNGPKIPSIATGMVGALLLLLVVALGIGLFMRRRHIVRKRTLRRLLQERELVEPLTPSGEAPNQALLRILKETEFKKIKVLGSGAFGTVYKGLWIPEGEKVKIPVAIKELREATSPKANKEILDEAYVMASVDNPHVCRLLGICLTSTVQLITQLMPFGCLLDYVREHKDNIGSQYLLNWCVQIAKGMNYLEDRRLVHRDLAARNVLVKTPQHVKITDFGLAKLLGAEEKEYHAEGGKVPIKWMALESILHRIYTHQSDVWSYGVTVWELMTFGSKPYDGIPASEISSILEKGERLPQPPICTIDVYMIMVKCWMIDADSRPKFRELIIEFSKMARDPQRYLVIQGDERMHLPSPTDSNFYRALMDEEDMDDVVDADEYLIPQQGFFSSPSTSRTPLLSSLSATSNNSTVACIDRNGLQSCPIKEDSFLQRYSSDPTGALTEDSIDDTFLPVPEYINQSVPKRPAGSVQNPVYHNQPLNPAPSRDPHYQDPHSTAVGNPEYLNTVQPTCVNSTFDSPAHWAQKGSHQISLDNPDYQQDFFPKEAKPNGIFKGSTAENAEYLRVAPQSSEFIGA

## CN1CCOc2ccc(Nc3nc(-c4cnn(C(CC#N)C5CCCC5)c4)c4cc[nH]c4n3)cc2OCC1 (centres unmarked) [Example 27]
JAK2
  EC50: 50 to 500 nM
JAK3 [1]; at 10 nM, read-out: inhibition rate JAK3
  inhibition at 0.01 µM: 40 to 79%
JAK3 [1]; at 100 nM, read-out: inhibition rate JAK3
  inhibition at 0.1 µM: > 80%
JAK3 [1]
  IC50: < 50 nM
TYK2
  inhibition at 0.01 µM: 40 to 79%
  inhibition at 0.1 µM: > 80%

## C=CC(=O)Nc1cccc(Nc2nc(Nc3ccc4c(c3)OCCOCCN(C)CCO4)ncc2Cl)c1 [Example 54, N-(3-((5-chloro-2-((7-methyl-2,3,6,7,8,9-hexahydro-5H-benzo[b][1,4,7]trioxa[10]azacyclododecan-13-yl)amino)pyrimidin-4-yl)amino)phenyl)acrylamide]
EGFR (T790M)
  inhibition at 0.01 µM: > 80%
JAK3 [2]
  EC50: 50 to 500 nM
[3]; simulated gastric fluid, diluted hydrochloric acid solution A (pH-1.5), room temperature, 1 hour
  solubility at 1 h: > 3730 µg/mL
[3]; ultrapure water (pH-6), room temperature overnight
  solubility: 886 µg/mL (≈ 1690 µM)
[4]
  IC50: < 50 nM

## CCS(=O)(=O)N1CC(CC#N)(n2cc(-c3nc(Nc4ccc5c(c4)OCCN(C)CCO5)nc4[nH]ccc34)cn2)C1 [Example 28]
JAK2
  EC50: 50 to 500 nM
JAK3 [1]
  IC50: < 50 nM
TYK2
  inhibition at 0.01 µM: > 80%
  inhibition at 0.1 µM: > 80%

## C=CC(=O)Nc1cccc(Nc2nc(Nc3ccc4c(c3)OCCN(C)CCOCCO4)ncc2Cl)c1 [Example 56, N-(3-((5-chloro-2-((7-methyl-2,3,6,7,8,9-hexahydro-5H-benzo[b][1,4,7]trioxa[10]azacyclododecan-12-yl)amino)pyrimidin-4-yl)amino)phenyl)acrylamide]
EGFR (T790M)
  inhibition at 0.01 µM: > 80%
[4]
  IC50: < 50 nM
